Measured values published in patent US8232270B2, “Bivalent (−)-meptazinol compounds and/or their salts, and their preparation and futilization” (priority 2006, dated 2012).
Where “and” joins values, the source holds several entries; their conditions need not be identical. Equal entries are not always repeated. Structures can show the parent of a compound that is named as a salt.

Key:
[1] = molecular target: T1, mice brain AChE (Mus musculus, UniProt P21836); settings: background statement; cited from earlier work
T1 construct: Mice brain homogenate prepared in saline was used as a source of AChE; from tissue; host or cells: mouse brain homogenate
T1 sequence (P21836 32-614): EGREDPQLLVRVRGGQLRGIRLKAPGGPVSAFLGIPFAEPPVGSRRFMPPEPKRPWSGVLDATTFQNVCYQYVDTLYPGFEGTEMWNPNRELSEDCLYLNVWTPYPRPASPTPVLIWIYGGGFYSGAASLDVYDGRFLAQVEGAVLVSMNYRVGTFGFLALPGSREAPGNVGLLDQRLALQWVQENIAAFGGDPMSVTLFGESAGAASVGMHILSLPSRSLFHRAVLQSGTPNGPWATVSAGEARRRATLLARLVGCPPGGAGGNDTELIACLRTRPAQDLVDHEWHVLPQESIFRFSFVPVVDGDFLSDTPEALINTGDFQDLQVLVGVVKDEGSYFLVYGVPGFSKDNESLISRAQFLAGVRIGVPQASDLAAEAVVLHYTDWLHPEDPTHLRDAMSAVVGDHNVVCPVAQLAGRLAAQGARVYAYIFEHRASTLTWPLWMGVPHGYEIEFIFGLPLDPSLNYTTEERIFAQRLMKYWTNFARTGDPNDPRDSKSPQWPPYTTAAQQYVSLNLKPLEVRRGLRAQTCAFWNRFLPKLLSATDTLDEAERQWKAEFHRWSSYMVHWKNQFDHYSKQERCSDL

[2] = molecular target: T2, AChE-induced Aβ (1-40) aggregation (human recombinant AChE) (Homo sapiens, UniProt P22303); assay: Inhibition of AChE-induced Aβ aggregation, thioflavin T fluorescence; type: biochemical; settings: for inhibition at 100 µM: inhibitor 100 μM, read-out: Inhibition (%) 100 μM ± SEM; for inhibition at 400 µM: read-out: Inhibition (%) 400 μM ± SEM; for IC50: extrapolated from inhibition curves, read-out: IC50 ± SEM, AChE-induced Aβ aggregation; for inhibition of AChE-induced Aβ aggregation, factor compared with propidium: relative to propidium
T2 construct: purchased Sigma-Aldrich
Description: Aliquots of 2 μL Aβ (1-40) peptide (Biosource), lyophilized from 2 mg/mL HFIP solution and dissolved in DMSO, were incubated for 48 h at room temperature in 0.215 M sodium phosphate buffer (pH 8.0) at a concentration of 230 μM. For coincubation experiments, aliquots (16 μL) of human recombinant AChE (Sigma-Aldrich) (final concentration of 2.3 μM) and AChE in the presence of 2 μL of the tested inhibitors were added. Each assay was run in duplicate. To quantify amyloid fibril formation, the thioflavin T fluorescence method was then applied.
Fluorescence was monitored with excitation at 446 nm and emission at 490 nm. The percent inhibition of the AChE-induced aggregation due to the presence of increasing concentrations of the inhibitor was calculated by the following expression: 100−(IFi/IFo×100), where IFi and IFo were the fluorescence intensities obtained for Aβ plus AChE in the presence and in the absence of inhibitor, respectively, after subtracting the fluorescence of respective blanks. Inhibition curves and linear regression parameters were obtained for each compound, and the IC50 was extrapolated.

[3] = molecular target: T1, mice brain AChE; assay: AChE inhibition, Ellman spectrophotometric assay, mice brain homogenate; type: biochemical; settings: for IC50: mean ± SEM, at least three measures, hydrochlorides, 20 min preincubation at 37° C.; for AChE selectivity: mice serum BChE versus mice brain AChE IC50
Description: (§1) AChE inhibiting activities were measured by a spectrophotometric assay developed by Ellman et al. It was based on the fact that AChE catalyzes the hydrolysis of acetylcholine, releasing choline and acetic acid. In this assay, acetylthiocholine (AChSC) is hydrolyzed by the enzyme, releasing thiocholine containing a sulfhydrylic group able to react with color indicating reagent. Yellowish products were measured spectrophotometrically, the amount of which reflects the activity of AChE. All the procedures were operated according to the instruction of the AChE reagent kit produced by Nanjing Jiancheng Bio-engineering Institute. Mice brain homogenate prepared in saline was used as a source of AChE; mice serum was the source of BChE.
(§2) After incubation for 20 min at 37° C., acetylthiocholine iodide (300 μL of 0.05 mM water solution) was added as the substrate, and AChE activity was determined by UV spectrophotometry from the absorbance changes at […] for 3 min at 25° C. […] BChE inhibitory activity determinations were similarly carried out using butyrylthiocholine iodide (0.05 mM) as the substrate. Results are reported as the means ±SEM of IC50 obtained from at least three independent measures.

[4] = molecular target: T3, mice serum BChE (Mus musculus, UniProt Q03311); assay: BChE inhibition, Ellman spectrophotometric assay, mice serum; type: biochemical; settings: for IC50: mean ± SEM, at least three measures, butyrylthiocholine iodide substrate
T3 construct: mice serum was the source of BChE; from tissue; host or cells: mouse serum
Description: as §1
as §2, with “The AChE activity was determined in a reaction mixture containing 200 μL of a solution of AChE (0.415 U/mL in 0.1 M phosphate buffer, pH 8.0), 300 μL of a solution of 5,5′-dithio-bis(2-nitrobenzoic) acid (3.3 mM DTNB in 0.1 M phosphate buffered solution, pH 7.0, containing NaHCO3 6 mM), and 30 μL of a solution of the inhibitor (six to seven concentrations). After” for “After”

[5] = inhibitor 400 μM, Aβ 230 μM, AChE 2.3 μM, 48 h
[6] = relative to (−)-MEP (hydrochloride)

T2 sequence (P22303 32-614): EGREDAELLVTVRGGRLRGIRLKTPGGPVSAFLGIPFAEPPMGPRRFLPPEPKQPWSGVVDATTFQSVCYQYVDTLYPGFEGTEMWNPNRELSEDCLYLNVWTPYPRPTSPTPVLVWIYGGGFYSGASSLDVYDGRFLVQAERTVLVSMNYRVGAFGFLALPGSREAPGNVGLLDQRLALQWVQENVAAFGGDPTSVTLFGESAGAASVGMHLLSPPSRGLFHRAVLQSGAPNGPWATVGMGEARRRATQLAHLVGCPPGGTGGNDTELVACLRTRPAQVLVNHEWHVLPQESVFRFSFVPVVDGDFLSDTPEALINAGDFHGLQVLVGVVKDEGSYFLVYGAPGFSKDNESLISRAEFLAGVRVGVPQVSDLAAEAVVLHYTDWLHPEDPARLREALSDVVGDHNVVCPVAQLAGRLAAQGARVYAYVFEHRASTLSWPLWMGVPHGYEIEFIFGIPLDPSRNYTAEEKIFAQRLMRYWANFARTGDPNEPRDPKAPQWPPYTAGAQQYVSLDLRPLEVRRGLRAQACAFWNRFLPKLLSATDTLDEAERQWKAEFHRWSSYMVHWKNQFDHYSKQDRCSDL
T3 sequence (Q03311 30-603): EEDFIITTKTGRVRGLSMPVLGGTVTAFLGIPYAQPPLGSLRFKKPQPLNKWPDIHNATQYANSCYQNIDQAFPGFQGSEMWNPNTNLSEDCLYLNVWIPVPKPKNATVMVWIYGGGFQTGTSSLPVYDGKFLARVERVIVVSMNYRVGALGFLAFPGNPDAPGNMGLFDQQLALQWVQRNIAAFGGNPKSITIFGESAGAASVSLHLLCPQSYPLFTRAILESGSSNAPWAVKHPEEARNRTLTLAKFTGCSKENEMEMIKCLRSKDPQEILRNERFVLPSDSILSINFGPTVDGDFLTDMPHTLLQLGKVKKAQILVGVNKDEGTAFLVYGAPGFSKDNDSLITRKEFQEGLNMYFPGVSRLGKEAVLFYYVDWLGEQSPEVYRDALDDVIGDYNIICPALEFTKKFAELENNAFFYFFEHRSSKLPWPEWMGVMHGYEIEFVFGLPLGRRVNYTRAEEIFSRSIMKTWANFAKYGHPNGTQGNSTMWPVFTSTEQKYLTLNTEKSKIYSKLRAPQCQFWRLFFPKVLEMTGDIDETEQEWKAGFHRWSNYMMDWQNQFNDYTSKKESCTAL

Row | Compound | IC50 [3] [nM] | AChE selectivity [3] | IC50 [4] [nM] | inhibition at 100 µM ([2]; Aβ 230 μM, AChE 2.3 μM, 48 h) [%] | inhibition at 400 µM [2, 5] [%] | further results
1 | CCC1(c2cccc(O)c2)CCCCN(C)C1 (single isomer, unassigned; (-)) [(−)-meptazinol] | 41000 ± 14000 | 0.37 | 15000 ± 4000 |  |  | mice brain AChE inhibition test, result in words [1]: potent AChE inhibitor; Inhibition (%) 400 μM ± SEM [2, 5]: 0%
2 | CC[C@@]1(c2cccc(O)c2)CCCCN(CCN2CCCC[C@@](CC)(c3cccc(O)c3)C2)C1 [(A = CH2, n = 2)] | 43000 ± 20000 | 0.0029 | 125 ± 9 |  |  | 
3 | CC[C@@]1(c2cccc(O)c2)CCCCN(CCCN2CCCC[C@@](CC)(c3cccc(O)c3)C2)C1 [(A = CH2, n = 3)] | 42000 ± 14000 | 0.0031 | 132 ± 51 |  |  | 
4 | CC[C@@]1(c2cccc(O)c2)CCCCN(CCCCN2CCCC[C@@](CC)(c3cccc(O)c3)C2)C1 [(A = CH2, n = 4), N,N′-(1′,4′-Butylene)-bis-(−)-nor-MEP Hydrochloride] | 21400 ± 7600 | 0.0049 | 104 ± 29 |  |  | 
5 | CC[C@@]1(c2cccc(O)c2)CCCCN(CCCCCN2CCCC[C@@](CC)(c3cccc(O)c3)C2)C1 [(A = CH2, n = 5)] | 4000 ± 1000 | 0.048 | 192 ± 41 |  |  | 
6 | CC[C@@]1(c2cccc(O)c2)CCCCN(CCCCCCN2CCCC[C@@](CC)(c3cccc(O)c3)C2)C1 [(A = CH2, n = 6)] | 1220 ± 20 | 0.098 | 119 ± 20 |  |  | 
7 | CC[C@@]1(c2cccc(O)c2)CCCCN(CCCCCCCN2CCCC[C@@](CC)(c3cccc(O)c3)C2)C1 [(A = CH2, n = 7)] | 270 ± 70 | 0.38 | 102 ± 19 |  |  | 
8 | CC[C@@]1(c2cccc(O)c2)CCCCN(CCCCCCCCN2CCCC[C@@](CC)(c3cccc(O)c3)C2)C1 [(A = CH2, n = 8)] | 79 ± 19 | 0.80 | 63 ± 8 | 0 | 0.15 ± 0.2 | 
9 | CC[C@@]1(c2cccc(O)c2)CCCCN(CCCCCCCCCN2CCCC[C@@](CC)(c3cccc(O)c3)C2)C1 [(A = CH2, n = 9), N,N′-(1′,9′-Nonylene)-bis-(−)-nor-MEP Hydrochloride] | 3.9 | 2.6 | 10 | 74.4 ± 4.3 | 91.7 ± 3.6 | IC50 [2]: 79000 nM and 79400 nM; inhibition of AChE-induced Aβ aggregation, factor compared with propidium [2]: ~2 times; selectivity for AChE, times that of (−)-MEP ([3]; relative to (−)-MEP): 7 times; fold increase in inhibiting mice brain AChE compared with (−)-MEP [3, 6]: 10000 fold; fold increase in inhibiting mice brain AChE compared with rivastigmine ([3]; relative to rivastigmine): 1400 fold; selectivity for AChE, times that of rivastigmine ([3]; relative to rivastigmine): 9 times; BChE inhibition, times more potent than (−)-MEP [4, 6]: 1500 times; BChE inhibition, times more potent than rivastigmine ([4]; relative to rivastigmine): 150 times
10 | CC[C@@]1(c2cccc(O)c2)CCCCN(CCCCCCCCCCN2CCCC[C@@](CC)(c3cccc(O)c3)C2)C1 [(A = CH2, n = 10)] | 9.5 ± 4.5 | 1.8 | 17 ± 6 | 66.6 ± 1.7 | 81.8 ± 1.2 | IC50 [2]: 83000 nM and 83400 nM; inhibition of AChE-induced Aβ aggregation, factor compared with propidium [2]: ~2 times
11 | CC[C@@]1(c2cccc(O)c2)CCCCN(CCCCCCCCCCCN2CCCC[C@@](CC)(c3cccc(O)c3)C2)C1 [(A = CH2, n = 11)] | 24 ± 8 | 3.1 | 74 ± 11 |  |  | 
12 | CC[C@@]1(c2cccc(O)c2)CCCCN(CCCCCCCCCCCCN2CCCC[C@@](CC)(c3cccc(O)c3)C2)C1 [(A = CH2, n = 12)] | 42 ± 20 | 2.4 | 100 ± 55 |  |  | 
13 | CC[N+](C)(CC)CCC[n+]1c(-c2ccccc2)c2cc(N)ccc2c2ccc(N)cc21 [Propidium iodine, reference compound] |  |  |  | 16.7 ± 4.4 | 79.2 ± 5.9 | 
